Experiments:
[1] = biological target: T1, rat adrenergic α1B receptor (Rattus norvegicus, UniProt P15823); experiment: Radioligand binding, adrenergic α1B receptor ([3H]Prazosin); settings: 0.1 μM compound, Wistar rat liver, read-out: Percentage inhibition of ligand binding, Adrenergic α1B
T1 construct: rat adrenergic α1B receptor obtained from Wistar Rat liver; from tissue; host or cells: Wistar rat liver
T1 sequence (P15823 1-515): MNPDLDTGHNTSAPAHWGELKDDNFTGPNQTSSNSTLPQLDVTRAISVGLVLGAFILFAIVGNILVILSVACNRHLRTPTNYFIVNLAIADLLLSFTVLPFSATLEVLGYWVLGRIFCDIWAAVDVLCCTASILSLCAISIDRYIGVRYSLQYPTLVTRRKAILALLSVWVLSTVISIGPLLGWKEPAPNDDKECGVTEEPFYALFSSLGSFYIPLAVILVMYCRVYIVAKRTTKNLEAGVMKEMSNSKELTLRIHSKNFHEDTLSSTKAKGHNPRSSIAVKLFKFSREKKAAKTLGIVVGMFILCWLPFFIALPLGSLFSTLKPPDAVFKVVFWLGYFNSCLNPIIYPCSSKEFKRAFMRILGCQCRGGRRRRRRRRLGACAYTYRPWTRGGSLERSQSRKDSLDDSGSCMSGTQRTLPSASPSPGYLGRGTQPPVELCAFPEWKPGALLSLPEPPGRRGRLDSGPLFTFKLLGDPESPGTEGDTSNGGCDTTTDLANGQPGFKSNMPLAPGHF
Procedure, shortened: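 Wistar rat liver α1B receptor preparation incubated with 0.25 nM [3H]prazosin and compound for 60 min at 25° C in 50 mM Tris-HCl pH 7.4, 0.5 mM EDTA; nonspecific binding defined with 10 μM phentolamine.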

[2] = biological target: T2, human recombinant adrenergic α1D receptor (Homo sapiens, UniProt P25100); experiment: Radioligand binding, adrenergic α1D receptor ([3H]Prazosin); settings: 0.1 μM compound; HEK-293 cells; 0.6 nM [3H]Prazosin; read-out: Percentage inhibition of ligand binding, Adrenergic α1D
T2 construct: expressed in transfected cells; host or cells: HEK-293
T2 sequence (P25100 1-572): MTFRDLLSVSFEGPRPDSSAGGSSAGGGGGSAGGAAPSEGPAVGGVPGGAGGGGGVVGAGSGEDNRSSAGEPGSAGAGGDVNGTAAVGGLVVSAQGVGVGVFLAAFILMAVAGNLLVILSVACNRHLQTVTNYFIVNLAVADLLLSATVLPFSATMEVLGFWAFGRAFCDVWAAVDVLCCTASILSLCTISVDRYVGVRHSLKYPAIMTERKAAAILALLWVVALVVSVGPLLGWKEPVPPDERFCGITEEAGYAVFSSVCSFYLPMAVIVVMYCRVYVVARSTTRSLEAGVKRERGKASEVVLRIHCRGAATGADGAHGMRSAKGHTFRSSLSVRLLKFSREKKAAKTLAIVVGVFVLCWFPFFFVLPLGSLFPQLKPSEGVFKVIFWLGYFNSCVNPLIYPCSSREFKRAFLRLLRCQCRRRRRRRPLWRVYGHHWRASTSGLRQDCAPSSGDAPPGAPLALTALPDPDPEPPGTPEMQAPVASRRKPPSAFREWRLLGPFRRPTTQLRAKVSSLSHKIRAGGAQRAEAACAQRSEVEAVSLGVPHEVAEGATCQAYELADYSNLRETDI
Protocol: Compounds were incubated with 0.6 nM [3H]Prazosin for 60 min at 25° C. Non-specific binding was estimated in the presence of 10 μM phentolamine. Receptor proteins were filtered and washed, the filters were then counted to determine [3H]Prazosin specifically bound. Compounds were screened at 1 μM or lower, using 1% DMSO as vehicle. Biochemical assay results are presented as the percent inhibition of specific binding in Table 2.

[3] = biological target: T3, human recombinant adrenergic α2B receptor (Homo sapiens, UniProt P18089); experiment: Radioligand binding, adrenergic α2B receptor ([3H]Rauwolscine); settings: 0.1 μM compound, CHO-K1 cells, read-out: Percentage inhibition of ligand binding, Adrenergic α2B
T3 construct: expressed in transfected cells; host or cells: CHO-K1
T3 sequence (P18089 1-450): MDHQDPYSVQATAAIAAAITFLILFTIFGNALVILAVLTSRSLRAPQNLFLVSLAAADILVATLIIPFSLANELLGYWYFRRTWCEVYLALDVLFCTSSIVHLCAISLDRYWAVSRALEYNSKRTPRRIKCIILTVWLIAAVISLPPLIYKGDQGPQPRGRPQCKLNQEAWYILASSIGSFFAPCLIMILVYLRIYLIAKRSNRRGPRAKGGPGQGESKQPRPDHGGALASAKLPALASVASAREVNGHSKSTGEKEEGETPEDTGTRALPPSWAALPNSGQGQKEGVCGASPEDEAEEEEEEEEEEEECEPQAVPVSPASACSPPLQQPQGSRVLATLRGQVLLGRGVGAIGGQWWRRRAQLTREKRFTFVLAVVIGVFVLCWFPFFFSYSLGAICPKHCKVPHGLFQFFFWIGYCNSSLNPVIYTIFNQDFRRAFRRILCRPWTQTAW
Procedure, shortened: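 Percent inhibition of specific [3H]Rauwolscine (2.5 nM) binding, compounds at ≤1 μM, 1% DMSO vehicle, 10 μM prazosin defining nonspecific. Receptor: human α2B expressed in CHO-K1 cells, 60 min incubation at 25 °C in Tris-HCl pH 7.4 buffer (MgCl2, EDTA, BSA); filtered, washed, counted.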

[4] = biological target: T4, human recombinant adrenergic α2A receptor (Homo sapiens, UniProt P08913); experiment: Radioligand binding, adrenergic α2A receptor ([3H]MK-912); settings: 0.1 μM compound; Sf9 cells; 1 nM [3H]MK-912; read-out: Percentage inhibition of ligand binding, Adrenergic α2A
T4 construct: expressed in transfected cells; host or cells: insect Sf9 cells
T4 sequence (P08913 1-465): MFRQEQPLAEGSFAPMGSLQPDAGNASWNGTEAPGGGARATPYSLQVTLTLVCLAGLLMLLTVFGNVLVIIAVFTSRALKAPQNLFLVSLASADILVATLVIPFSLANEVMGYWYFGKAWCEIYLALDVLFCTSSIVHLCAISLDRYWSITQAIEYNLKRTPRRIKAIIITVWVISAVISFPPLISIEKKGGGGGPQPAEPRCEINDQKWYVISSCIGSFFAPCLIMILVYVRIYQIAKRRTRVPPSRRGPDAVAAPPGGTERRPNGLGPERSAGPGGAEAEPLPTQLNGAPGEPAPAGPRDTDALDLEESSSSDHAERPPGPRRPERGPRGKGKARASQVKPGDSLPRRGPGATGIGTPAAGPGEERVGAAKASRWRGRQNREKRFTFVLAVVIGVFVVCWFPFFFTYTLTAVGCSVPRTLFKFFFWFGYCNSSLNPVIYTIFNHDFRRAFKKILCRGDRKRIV
Procedure, shortened: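 Percent inhibition of specific [3H]MK-912 (1 nM) binding measured by filtration counting, compounds tested at ≤1 μM in 1% DMSO. Receptor: human α2A from Sf9 cells; incubation 60 min, 25 °C, pH 7.4; 10 μM WB-4101 defined nonspecific binding.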

Compound	inhibition at 0.1 µM [1]	inhibition at 0.1 µM [2]	inhibition at 0.1 µM [3]	inhibition at 0.1 µM [4]
CC(=O)Nc1ccc(-c2ccccc2-n2c3c(c4cc(C)ccc42)CN(C)CC3)cn1 [Compound No. 83, N-(5-(2-(2,8-dimethyl-3,4-dihydro-1H-pyrido[4,3-b]indol-5(2H)-yl)phenyl)pyridin-2-yl)acetamide]	18%	64%	71%	20%
Cc1ccc2c(c1)c1c(n2-c2ccccc2-c2ccc(F)nc2)CCN(C)C1 [Compound No. 84, 5-(2-(6-fluoropyridin-3-yl)phenyl)-2,8-dimethyl-2,3,4,5-tetrahydro-1H-pyrido[4,3-b]indole]	54%	58%	89%	68%
Cc1ccc2c(c1)c1c(n2-c2ccccc2-c2cnn(C)c2)CCN(C)C1 [Compound No. 86, 2,8-dimethyl-5-(2-(1-methyl-1H-pyrazol-4-yl)phenyl)-2,3,4,5-tetrahydro-1H-pyrido[4,3-b]indole]	26%	22%	67%	33%
Cc1ccc2c(c1)c1c(n2-c2ccccc2-c2cncc3ccccc23)CCN(C)C1 [Compound No. 87, 5-(2-(isoquinolin-4-yl)phenyl)-2,8-dimethyl-2,3,4,5-tetrahydro-1H-pyrido[4,3-b]indole]	13%	16%	18%	30%
Cc1ccc2c(c1)c1c(n2-c2cnc3ccccc3c2)CCN(C)C1 [Compound No. 88, 2,8-dimethyl-5-quinolin-3-yl-2,3,4,5-tetrahydro-1H-pyrido[4,3-b]indole]	36%	20%	80%	15%
Cc1ccc2c(c1)c1c(n2-c2ccccc2-c2sccc2C)CCN(C)C1 [Compound No. 102, 2,8-dimethyl-5-(2-(3-methylthiophen-2-yl)phenyl)-2,3,4,5-tetrahydro-1H-pyrido[4,3-b]indole]	57%	50%	90%	85%
Cc1ccc2c(c1)c1c(n2-c2ccccc2-c2cc3ccccc3s2)CCN(C)C1 [Compound No. 103, 5-(2-(benzo[b]thiophen-2-yl)phenyl)-2,8-dimethyl-2,3,4,5-tetrahydro-1H-pyrido[4,3-b]indole]	41%	62%	97%	98%
Cc1ccc2c(c1)c1c(n2-c2ccccc2-c2cccc3[nH]ncc23)CCN(C)C1 [Compound No. 105, 5-(2-(1H-indazol-4-yl)phenyl)-2,8-dimethyl-2,3,4,5-tetrahydro-1H-pyrido[4,3-b]indole]	71%	65%	84%	79%
Cc1ccc2c(c1)c1c(n2-c2cccc(-c3ccc(S(C)(=O)=O)cc3)c2)CCN(C)C1 [Compound No. 131, 2,8-dimethyl-5-(4′-(methylsulfonyl)biphenyl-3-yl)-2,3,4,5-tetrahydro-1H-pyrido[4,3-b]indole]	0%	3%	28%	75%
Cc1ccc2c(c1)c1c(n2-c2ccc(-c3ccncc3)cn2)CCN(C)C1 [Compound No. 132, 5-(3,4′-bipyridin-6-yl)-2,8-dimethyl-2,3,4,5-tetrahydro-1H-pyrido[4,3-b]indole]	33%	28%	69%	17%
Cc1ccc2c(c1)c1c(n2-c2ccc(-c3cccnc3)cn2)CCN(C)C1 [Compound No. 133, 5-(3,3′-bipyridin-6-yl)-2,8-dimethyl-2,3,4,5-tetrahydro-1H-pyrido[4,3-b]indole]	63%	53%	77%	31%
Cc1ccc2c(c1)c1c(n2-c2ccc(-c3cnn(C)c3)cn2)CCN(C)C1 [Compound No. 134, 2,8-dimethyl-5-(5-(1-methyl-1H-pyrazol-4-yl)pyridin-2-yl)-2,3,4,5-tetrahydro-1H-pyrido[4,3-b]indole]	43%	30%	73%	38%
Cc1ccc2c(c1)c1c(n2-c2ccc(-c3cncc4ccccc34)cn2)CCN(C)C1 [Compound No. 135, 5-(5-(isoquinolin-4-yl)pyridin-2-yl)-2,8-dimethyl-2,3,4,5-tetrahydro-1H-pyrido[4,3-b]indole]	59%	64%	99%	56%
Cc1ccc2c(c1)c1c(n2-c2ccc(-c3ccc4c(ccn4C)c3)cn2)CCN(C)C1 [Compound No. 136, 2,8-dimethyl-5-(5-(1-methyl-1H-indol-5-yl)pyridin-2-yl)-2,3,4,5-tetrahydro-1H-pyrido[4,3-b]indole]	70%	59%	105%	59%
Cc1ccc2c(c1)c1c(n2-c2ccc(-c3c(C)noc3C)cn2)CCN(C)C1 [Compound No. 137, 4-(6-(2,8-dimethyl-3,4-dihydro-1H-pyrido[4,3-b]indol-5(2H)-yl)pyridin-3-yl)-3,5-dimethylisoxazole]	72%	74%	92%	57%
